Values quoted from earlier work, collected in PMC9516332 (Frontiers in Oncology, 2022).
Where two headings read alike, the source gives them in different places.

Columns and labels:
Settings in all cases: cited from earlier work
[1] = biological target: panel of 255 wild-type kinases (Homo sapiens, UniProt P27361)
[2] = biological target: panel of 255 wild-type kinases (Homo sapiens, UniProt Q15759)
[3] = biological target: T1, panel of 255 wild-type kinases (Homo sapiens, UniProt O14920)
T1 sequence (O14920 1-756): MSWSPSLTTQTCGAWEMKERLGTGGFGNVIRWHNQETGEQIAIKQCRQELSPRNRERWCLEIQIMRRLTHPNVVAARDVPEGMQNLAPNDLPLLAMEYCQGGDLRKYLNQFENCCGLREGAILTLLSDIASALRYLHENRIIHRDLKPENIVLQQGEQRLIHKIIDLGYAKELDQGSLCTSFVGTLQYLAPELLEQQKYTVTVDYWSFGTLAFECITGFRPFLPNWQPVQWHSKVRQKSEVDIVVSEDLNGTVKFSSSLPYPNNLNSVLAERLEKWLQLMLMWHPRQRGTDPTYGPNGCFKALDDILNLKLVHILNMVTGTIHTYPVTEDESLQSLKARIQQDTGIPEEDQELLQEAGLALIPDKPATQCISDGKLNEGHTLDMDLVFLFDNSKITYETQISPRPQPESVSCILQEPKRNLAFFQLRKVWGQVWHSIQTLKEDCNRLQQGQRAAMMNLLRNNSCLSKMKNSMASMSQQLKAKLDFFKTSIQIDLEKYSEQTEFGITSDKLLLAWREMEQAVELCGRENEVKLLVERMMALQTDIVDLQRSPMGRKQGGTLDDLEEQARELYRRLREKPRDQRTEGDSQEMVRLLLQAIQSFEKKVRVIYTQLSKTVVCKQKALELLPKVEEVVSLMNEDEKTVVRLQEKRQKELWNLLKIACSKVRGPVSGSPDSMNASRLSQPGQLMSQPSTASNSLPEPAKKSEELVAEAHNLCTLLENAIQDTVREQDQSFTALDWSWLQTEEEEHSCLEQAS

[4] = biological target: T2, panel of 255 wild-type kinases (Homo sapiens, UniProt Q9NRM7)
T2 sequence (Q9NRM7 1-1088): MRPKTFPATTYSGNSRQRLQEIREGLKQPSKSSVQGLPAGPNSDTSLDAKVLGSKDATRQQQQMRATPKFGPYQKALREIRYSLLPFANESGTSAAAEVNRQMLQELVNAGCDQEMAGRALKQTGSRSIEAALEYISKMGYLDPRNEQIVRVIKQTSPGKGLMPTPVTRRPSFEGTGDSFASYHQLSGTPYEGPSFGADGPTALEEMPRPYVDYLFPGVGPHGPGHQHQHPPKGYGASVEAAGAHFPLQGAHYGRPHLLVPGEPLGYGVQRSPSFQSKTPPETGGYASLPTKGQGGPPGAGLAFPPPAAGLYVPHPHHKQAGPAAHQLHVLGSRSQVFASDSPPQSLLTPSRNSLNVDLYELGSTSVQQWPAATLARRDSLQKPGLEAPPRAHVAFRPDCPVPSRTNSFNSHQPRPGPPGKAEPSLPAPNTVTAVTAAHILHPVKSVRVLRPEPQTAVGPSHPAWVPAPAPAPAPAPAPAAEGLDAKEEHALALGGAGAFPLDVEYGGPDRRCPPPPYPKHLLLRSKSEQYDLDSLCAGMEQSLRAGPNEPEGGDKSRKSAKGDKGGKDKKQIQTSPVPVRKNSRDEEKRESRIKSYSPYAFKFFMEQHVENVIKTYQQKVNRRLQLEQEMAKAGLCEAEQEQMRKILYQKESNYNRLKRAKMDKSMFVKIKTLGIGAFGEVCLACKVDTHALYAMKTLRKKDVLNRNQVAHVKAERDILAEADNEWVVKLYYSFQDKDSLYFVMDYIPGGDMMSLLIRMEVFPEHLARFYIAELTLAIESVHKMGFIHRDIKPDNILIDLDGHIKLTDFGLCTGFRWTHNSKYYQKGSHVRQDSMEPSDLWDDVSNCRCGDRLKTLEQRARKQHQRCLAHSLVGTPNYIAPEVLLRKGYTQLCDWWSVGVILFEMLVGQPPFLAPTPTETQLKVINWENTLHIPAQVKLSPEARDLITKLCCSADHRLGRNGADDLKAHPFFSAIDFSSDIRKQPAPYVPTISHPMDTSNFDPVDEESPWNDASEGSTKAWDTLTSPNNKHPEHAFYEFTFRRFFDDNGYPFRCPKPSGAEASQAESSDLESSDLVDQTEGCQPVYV

[5] = biological target: panel of 255 wild-type kinases (Homo sapiens, UniProt Q13882)
[6] = kinase Erk1, 1 µmol/L single concentration, ref DOI: 10.1158/1535-7163.MCT-18-0877
[7] = p38β, 1 µmol/L single concentration, ref DOI: 10.1158/1535-7163.MCT-18-0877
[8] = kinase IKKβ, 1 µmol/L single concentration, ref DOI: 10.1158/1535-7163.MCT-18-0877
[9] = kinase LATS2, 1 µmol/L single concentration, ref DOI: 10.1158/1535-7163.MCT-18-0877
[10] = BRK kinase assay, 1 µmol/L single concentration, ref DOI: 10.1158/1535-7163.MCT-18-0877
[11] = kinase Erk1, 1 µmol/L single concentration, ref DOI: 10.1371/journal.pone.0092146
[12] = p38β, 1 µmol/L single concentration, ref DOI: 10.1371/journal.pone.0092146
[13] = kinase IKKβ, 1 µmol/L single concentration, ref DOI: 10.1371/journal.pone.0092146
[14] = kinase LATS2, 1 µmol/L single concentration, ref DOI: 10.1371/journal.pone.0092146
[15] = BRK kinase assay, 1 µmol/L single concentration, ref DOI: 10.1371/journal.pone.0092146

Row | Structure (SMILES) | %-inhibition at 1 µmol/L, Erk1 [1, 6] [%] | %-inhibition, p38β [2, 7] [%] | %-inhibition at 1 µmol/L, IKKβ [3, 8] [%] | %-inhibition at 1 µmol/L, LATS2 [4, 9] [%] | %-inhibition BRK [5, 10] [%] | %-inhibition at 1 µmol/L, Erk1 [1, 11] [%] | %-inhibition, p38β [2, 12] [%] | %-inhibition at 1 µmol/L, IKKβ [3, 13] [%] | %-inhibition at 1 µmol/L, LATS2 [4, 14] [%] | %-inhibition BRK [5, 15] [%] | also measured
1 | O=C(c1ccc(F)c(F)c1Nc1ccc(I)cc1F)N1CC(O)([C@@H]2CCCCN2)C1 [cobimetinib] | -0.916 | 4 | 1.29 | 1.46 | -1 | – | – | – | – | – | –
2 | CC(C)(C)c1nc(-c2cccc(NS(=O)(=O)c3c(F)cccc3F)c2F)c(-c2ccnc(N)n2)s1 [dabrafenib] | – | – | – | – | – | -1.62 | 5.3 | 3.71 | 0.57 | 98 | –
3 | Cc1cc(Nc2ncc(Cl)c(Nc3ccccc3S(=O)(=O)C(C)C)n2)c(OC(C)C)cc1C1CCNCC1 [ceritinib] | 35 | 2.35 | -7 | 2.29 | 98 | – | – | – | – | – | –
4 | CCc1cc2c(cc1N1CCC(N3CCOCC3)CC1)C(C)(C)c1[nH]c3cc(C#N)ccc3c1C2=O [alectinib] | 1.41 | 0.144 | -5 | 1.69 | 9 | – | – | – | – | – | –
5 | CCCS(=O)(=O)Nc1ccc(F)c(C(=O)c2c[nH]c3ncc(-c4ccc(Cl)cc4)cc23)c1F [vemurafenib] | – | – | – | – | – | 0.0533 | 24 | -3.31 | -2.28 | 98 | –
6 | COc1cc(N2CCC(N3CCN(C)CC3)CC2)ccc1Nc1ncc(Cl)c(Nc2ccccc2P(C)(C)=O)n1 [brigatinib] | – | – | – | – | – | – | – | – | – | – | %-inhibition at 1 µmol/L, Erk1 [1]: 3.68%; %-inhibition, p38β [2]: 3.38%; %-inhibition at 1 µmol/L, IKKβ [3]: -4.22%; %-inhibition at 1 µmol/L, LATS2 [4]: 49%; %-inhibition BRK [5]: 103%
7 | CC(=O)Nc1cccc(-n2c(=O)n(C3CC3)c(=O)c3c(Nc4ccc(I)cc4F)n(C)c(=O)c(C)c32)c1 [trametinib] | – | – | – | – | – | -1.14 | 2.31 | 0.741 | 1.87 | -5.53 | –
8 | CC#CC(=O)N1CCC[C@H]1c1nc(-c2ccc(C(=O)Nc3ccccn3)cc2)c2c(N)nccn12 [acalabrutinib] | -2.38 | -3 | -7 | -7.45 | 51 | – | – | – | – | – | –
9 | C=CC(=O)Nc1cc(Nc2nccc(-c3cn(C)c4ccccc34)n2)c(OC)cc1N(C)CCN(C)C [osimertinib] | -3.18 | 4.56 | -1.32 | 5 | 101 | – | – | – | – | – | –
10 | CO[C@@H]1[C@H](N(C)C(=O)c2ccccc2)C[C@H]2O[C@]1(C)n1c3ccccc3c3c4c(c5c6ccccc6n2c5c31)C(=O)NC4 [midostaurin] | -0.653 | 1.19 | -4 | 86 | 11 | – | – | – | – | – | –
11 | C=CC(=O)N1CCC[C@@H](n2nc(-c3ccc(Oc4ccccc4)cc3)c3c(N)ncnc32)C1 [ibrutinib] | 1.74 | 9 | -0.348 | 5.45 | – | – | – | – | – | – | %-inhibition BRK [5]: 103%
12 | C[C@@H](Oc1cc(-c2cnn(C3CCNCC3)c2)cnc1N)c1c(Cl)ccc(F)c1Cl [crizotinib] | – | – | – | – | – | -2 | 0.299 | -5 | -6 | 15 | –
